Measured values reported in patent US10344037B2, “Use of the FL-one hundred eighteen core chemical structure platform to generate FL-one hundred eighteen derivatives for treatment of human disease” (priority 2014, dated 2019).

Legend:
[1] = Pharmacokinetics after IV injection in tumor-bearing SCID mice; assay type: in vivo
Method: Then, blood and tumor tissues were collected at 10 min, 1 h, 4 h, 12 h, 24, and 48 h. Three SCID mice at each time point were used. Standard deviation (SD) was analyzed using Excel software.
A 800 μl aliquot of ice cold acidified methanol is added to 200 μl plasma and vortexed for 15 sec. […] A 800 μl aliquot of ice cold acidified methanol is added to 200 μl homogenized tissue and then vortexed for 1 min. The samples are then centrifuged at 13,000 rpm for 5 min. and the supernatant is transferred to a clean 13×100 mm glass tube. Samples are dried under vacuum and stored at −20° C. until analysis. Dried samples were then reconstituted in 200 μl of mobile phase (80% 3% TEA and 20% acetonitrile pH 5.5) and 15 μl is injected. Analysis is carried out using an Acquity UPLC system with Fluorescence detection interfaced with Empower software. Separation is carried out on a Acquity BEH Shield RP18 1.7 μm, 2.1 mm×100 mm column (Waters). […] CPT-11 is used as the internal standard (IS); a 10 μl aliquot of a 1.3 μg/ml solution is added to each 200 μl sample. The fluorescence detector is set at the following Excitation (Ex) and Emissions (Em) wavelengths: Ex 370 nm Em 510 nm. […] To ensure quality assurance, quality control samples are prepared in plasma at 25 and 250 ng/ml aliquoted and stored at −20° C. The QC's are injected in duplicate at the beginning and end of the assay. […] Validation consists of running twelve standard curves over the course of 5 days. QC samples are analyzed with each curve.

[2] = system: HCT116 colon cancer cells; test: cells; assay type: cell-based, human
Method: (§2) Cancer cell viability and growth are determined by MTT assay. […] MTT is used as a colorimetric substrate for measuring cell viability and growth. When cell growth is inhibited, there is an alteration of cellular redox activity, and thus rendering cells unable to reduce the MTT dye. Cells are seeded in 96 well plates overnight and then treated with or without a compound/drug in the presence or absence of an protein molecule inhibitor (e.g. ABCG2 inhibitor ko143) for 48-72 hours, MTT is added to a final concentration 0.5 mg/ml. Cells are continuously incubated in a 5% CO2 incubator at 37° C. for 4 h with MTT and then lysed with a cell lysis buffer (20% SDS, 50% N,N-dimethylformamide, pH 4.7), 100 μl per well, for 4 h in the incubator. Subsequently, cell absorbance in each well is measured at 570 nm with an Ultra Microplate Reader (Bio-Tek Instruments). Results are reported as the mean±SD from 3-5 independent assays at each point. […] After 72 hours, media is removed and cells are harvested using 0.5 ml of 0.25% Trypsin-EDTA. Cells are counted and viability is analyzed on a Vi-CELL XR Cell Viability Analyzer (Beckman Coulter).

HCT116-NS6 cells = test: cells; assay type: cell-based, human
Method: as §2

HIF-1α = test: Western blot for HIF-1α expression under hypoxia in FaDu cells; assay type: cell-based, human; settings: 36 h
ABCG2 in HCT116-A2 cells = test: Growth inhibition after ABCG2 shRNA silencing; assay type: cell-based, human; settings: 72 hours
Method: Actin is internal control. B and C. […] Cells at sub-confluence are infected with lentiviral particles containing nonsense shRNA (ns), or AGCG2-specific shRNA (sh1, sh2) to silence ABCG2 expression in the cells. […] Viability for each dose was determined using a ViCELL XR cell viability analyzer and normalized to that of DMSO control. Error bars=SEM, n=3 independent experiments. Data are plotted graphically and EC50 values are calculated using GraphPad Prism 6.0.

[3] = system: SW620 and HCT-8 colon cancer cells; test: MTT assay with ABC transporter inhibitors; assay type: cell-based, human; settings: sildenafil 50 μM, 3 days
Method: (§1) Subconfluent SW620, HCT-8, and HCT-116 cells were lysed and analyzed for the expression of MDR1 and ABCG2 using western blots (WB). Actin is the internal control. […] Cell growth/viability was then analyzed by MTT assays. Each time point in the individual curve is the mean±SD from 3 to 5 independent assays. […] Drugs were then washed out and cells were allowed to grow in new medium without drugs for 2 weeks. Cell colonies were stained with crystal violet solution; images were digitally taken. Triplicate results are shown.

HCT-8 cells = test: Colony formation after 2 h or 6 h drug treatment; assay type: cell-based, human; settings: 2 h or 6 h treatment, 2 weeks growth
Method: as §1
Cell growth is then measured and the data are plotted as percentage of growth inhibition (no drug treatment was set at 0%). […] C. […] Representative cancer cell images were taken with a digital camera under phase-contrast microscope.

in vivo = settings: weekly×4
Method: Individual tumor curves derived from individual mice are shown. A. Mice with FaDu head-&-neck tumor xenografts were first treated with irinotecan at its maximum tolerated dose (MTD, 100 mg/kg, IP) weekly for 4-5 times (black arrow). […] B. Mice with FaDu tumor xenografts were first treated with topotecan at its MTD (4 mg/kg, IP) via daily×5 schedules for 4 cycles (each black arrow is one cycle). […] C. Mice with SW620 CRC xenografts were first treated with irinotecan at its MTD (IP, weekly×4, black arrow). […] D. Mice with SW620 xenograft tumors were first treated with topotecan at its MTD.

[4] = Cardiac measurements by ultrasound; assay type: in vivo, SCID mice; settings: IV 0.75 mg/kg (½MTD), q2d×4
Method: Cardiac imaging is performed using a 55 MHz ultrasound transducer system. Calculations are made based on the Simpson's method. Three short axis images and one long axis image of the left ventricle are acquired and used to determine cardiac output, ejection fraction, and stroke volume. […] Measurements are made with a 55 MHz ultrasound probe. Step (a): cardiac output is a measurement of the total volume of blood pumped by the left ventricle per minute. Step (b) ejection fraction measures the percentage of blood that leaves the left ventricle every time it contracts. Step (c) stroke volume measures the volume of blood pumped from the left ventricle with each contraction.
On the other hand, we have analyzed a comprehensive panel of chemical parameters to determine the potential chemical toxicity including renal and liver toxicity using blood samples from vehicle-treated SCID mice and FL118-treated mice. The analyzed parameters include glucose (GLU), blood urea nitrogen (BUN), creatinine (CREA), inorganic phosphate (PHOS), calcium (CA), total protein (TP), albumin (ALB), alanine aminotransferase (ALT), alkaline phosphatase (ALKP), Gamma-glutamyl transferase (GGT), total bilirubin (TBIL), cholesterol (CHOL), and amylase (AMYL), lipase (LIPA).

[5] = system: human EU-4 acute lymphocytic leukemia; test: EU-4 acute lymphocytic leukemia (ALL) mouse model; assay type: in vivo, SCID mice; settings: IV, q2×5
Source text: The EU-4 cells are intraperitoneally injected (5×10^6 per SCID mouse). […] Body weight changes, belly enlargement and overall mouse survival status are documented every 2-3 days throughout the experiment period.
Of note, “died with ascites” means mice at a moribund/dying state and then being euthanized. This is because moribund mice need to be euthanized based on the animal protocol rule.

HdmX, Hdm2 = test: HdmX and Hdm2 protein and mRNA levels in HCT-8 cells
Method: Rescue of HdmX degradation by proteasome inhibitor MG132. […] Cell lysates are then analyzed by immunoblotting of HdmX. Actin expression is used as an internal control.

[6] = IC50 of topotecan divided by IC50 of the drug

Source text for FaDu and SW620 tumors: Three types of human cancer xenografts are used in the studies: 1) from human head-&-neck cancer cell line (FaDu)-established xenografts; 2) from human colon cancer cell line (SW620)-established xenografts; and 3) from human acute lymphocytic leukemia cell line (EU-4)-established xenografts. All in vivo experiments use either nude or severe combined immunodeficiency (SCID) mice. Human tumor cell line-derived xenografts are initially established by subcutaneously injecting 1×10^6 cultured cancer cells. The derived tumors are then passed several generations in mice by transplanting 40-50 mg non-necrotic tumor mass via a trocar after the xenograft tumor reached ˜1000 mm^3. Treatment is initiated 7 days after tumor transplantation when the tumor reached 200-250 mm^3, at which time the treatment was designated as Day 0. Six to 12-week-old female SCID mice used in the studies. All animal experiments are performed in accordance with IACUC-approved animal protocols. Mice were housed 5 mice per cage with water and food ad libitum.

CC[C@@]1(O)C(=O)OCc2c1cc1n(c2=O)Cc2cc3cc4c(cc3nc2-1)OCO4 [FL118]
T1/2 ([1]; FaDu tumor, iv 1.5 mg/kg): 411.1 min
Tmax ([1]; FaDu tumor, iv 1.5 mg/kg): 10 min
Vz ([1]; FaDu tumor, iv 1.5 mg/kg): 33052 g/kg
T1/2 ([1]; SW620 tumor, iv 1.5 mg/kg): 765 min
Tmax ([1]; SW620 tumor, iv 1.5 mg/kg): 10 min
Vz ([1]; SW620 tumor, iv 1.5 mg/kg): 30742 g/kg
time FL118 is maintained in tumor ([1]; intravenous injection): over 48 hours
time to clearance from blood ([1]; intravenous injection): ≤ 12 h
Cl ([1]; mouse plasma, iv 1.5 mg/kg): 238.12 mL/min/kg
Cmax ([1]; mouse plasma, iv 1.5 mg/kg): 43 ng/mL
T1/2 ([1]; mouse plasma, iv 1.5 mg/kg): 107.3 min
Tmax ([1]; mouse plasma, iv 1.5 mg/kg): 10 min
Vz ([1]; mouse plasma, iv 1.5 mg/kg): 36.849 L/kg
IC50 [2]: 0.0477 nM
RP [2, 6]: 15.67
IC50 (HCT116-NS6 cells): 0.138 nM
RP (HCT116-NS6 cells; [6]): 40.87
hypoxia-induced HIF-1α expression (HIF-1α): abrogated by FL118 treatment
effect of silencing of ABCG2 on cell growth inhibition (ABCG2 in HCT116-A2 cells): shows no effect to FL118
sensitization by multi-efflux pump inhibitor sildenafil [3]: sildenafil does not sensitize FL118
more effective to inhibit colony formation than topotecan (HCT-8 cells): > 100 time
MTD (in vivo; IV injection): 5 mg/kg
body weight loss (in vivo; oral administration): Minimal Body Weight Loss
MTD (in vivo; oral): 10 mg/kg
cardiac output, ejection fraction and stroke volume [4]: no difference between vehicle control and FL118-treated SCID mice
ascites production and animal survival [5]: effectively inhibits ascites production and extends animal survival
mouse deaths (FaDu and SW620 tumors; large tumors, stored FL118 solution, attributed to possible Tumor Lysis Syndrome): death of two mice on Day 37
antitumor activity of stored solution (FaDu and SW620 tumors; ready-to-use solution stored at 4° C. for 6 months, 1.5 mg/kg weekly for 4 weeks): as effective as the newly formulated solution
mRNA levels of HdmX and p21 (quantitative real time PCR) (HdmX, Hdm2; FL118 treatment for 8 h): does not significantly alter the mRNA levels of HdmX but increases the control gene p21 mRNA levels
time to HdmX downregulation after treatment (HdmX, Hdm2; HCT-8 cells, 100 nM, time course): ≤ 4 h
proteasomal degradation of HdmX and Hdm2 (HdmX, Hdm2; HCT-8 cells, 10 and 100 nM): promotes proteasomal degradation of HdmX but not Hdm2
